Measurements: BindingDB's records for doi:10.1016/s0960-894x(01)00397-3 (Glaxosmithkline, 2001)

Biological target: C-C chemokine receptor type 2 (Homo sapiens, UniProt P41597)
Assay: Inhibition of [125I]MCP-1 binding to the cloned C-C chemokine receptor type 2B expressed in CHO cells

C-C chemokine receptor type 2, sequence (P41597 whole entry): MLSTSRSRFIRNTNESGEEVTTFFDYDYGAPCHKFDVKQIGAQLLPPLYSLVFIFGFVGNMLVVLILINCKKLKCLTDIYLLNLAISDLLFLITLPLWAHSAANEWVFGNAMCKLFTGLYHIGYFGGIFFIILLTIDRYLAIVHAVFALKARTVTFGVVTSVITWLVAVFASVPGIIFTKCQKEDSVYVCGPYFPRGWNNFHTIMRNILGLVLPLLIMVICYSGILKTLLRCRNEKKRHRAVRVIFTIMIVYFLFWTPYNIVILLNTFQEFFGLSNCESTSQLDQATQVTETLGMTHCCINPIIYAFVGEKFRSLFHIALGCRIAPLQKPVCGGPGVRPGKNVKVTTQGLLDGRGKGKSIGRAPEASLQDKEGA

With O=C(/C=C/c1ccc(Cl)c(Cl)c1)N[C@H]1CC[C@H](CN2CCC(c3c[nH]c4ccc(O)cc34)CC2)CC1 [3-(3,4-dichlorophenyl)-N-((1r,4r)-4-((4-(5-hydroxy-1H-indol-3-yl)piperidin-1-yl)methyl)cyclohexyl)acrylamide] the Ki was 316 nM.
